Reference: ChEMBL document CHEMBL4507276 (2021)

Key:
[1] = molecular target: Serine/threonine-protein kinase PknB (Mycobacterium tuberculosis) (UniProt P9WI81); conditions: Compound concentration 1000.0 nM
[2] = molecular target: Serine/threonine-protein kinase PAK 3 (Homo sapiens) (UniProt O75914); conditions: Compound concentration 1000.0 nM
[3] = molecular target: Phosphatidylinositol 4,5-bisphosphate 3-kinase catalytic subunit delta isoform (Homo sapiens) (UniProt O00329); conditions: Compound concentration 1000.0 nM
[4] = molecular target: T1, Activin receptor type-1B (Homo sapiens) (UniProt P36896); conditions: Compound concentration 1000.0 nM
T1 sequence (whole entry): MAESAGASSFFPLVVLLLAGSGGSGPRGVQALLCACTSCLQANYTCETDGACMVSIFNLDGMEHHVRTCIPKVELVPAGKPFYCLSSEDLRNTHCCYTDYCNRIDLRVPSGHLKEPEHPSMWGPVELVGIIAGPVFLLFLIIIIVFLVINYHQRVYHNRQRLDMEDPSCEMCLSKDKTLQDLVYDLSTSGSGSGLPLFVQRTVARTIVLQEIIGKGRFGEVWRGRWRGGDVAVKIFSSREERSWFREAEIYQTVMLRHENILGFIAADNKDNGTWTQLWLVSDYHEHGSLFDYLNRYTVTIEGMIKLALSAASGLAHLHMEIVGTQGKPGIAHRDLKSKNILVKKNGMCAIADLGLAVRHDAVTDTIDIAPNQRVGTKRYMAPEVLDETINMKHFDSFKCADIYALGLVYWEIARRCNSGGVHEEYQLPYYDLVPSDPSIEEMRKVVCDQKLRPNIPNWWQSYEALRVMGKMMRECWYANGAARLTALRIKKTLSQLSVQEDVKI

[5] = test system: ALK tyrosine kinase receptor (Homo sapiens), Q9UM73 [C1156Y]; conditions: Compound concentration 1000.0 nM
[6] = molecular target: Hepatocyte growth factor receptor (Homo sapiens) (UniProt P08581); conditions: Compound concentration 1000.0 nM
[7] = molecular target: Mitogen-activated protein kinase kinase kinase 12 (Homo sapiens) (UniProt Q12852); conditions: Compound concentration 1000.0 nM
[8] = molecular target: Cyclin-dependent kinase 14 (Homo sapiens) (UniProt O94921); conditions: Compound concentration 1000.0 nM
[9] = molecular target: Protein kinase C delta type (Homo sapiens) (UniProt Q05655); conditions: Compound concentration 1000.0 nM
[10] = molecular target: Membrane-associated tyrosine- and threonine-specific cdc2-inhibitory kinase (Homo sapiens) (UniProt Q99640); conditions: Compound concentration 1000.0 nM
[11] = molecular target: Mitogen-activated protein kinase 14 (Homo sapiens) (UniProt Q16539); conditions: Compound concentration 1000.0 nM
[12] = molecular target: Tyrosine-protein kinase HCK (Homo sapiens) (UniProt P08631); conditions: Compound concentration 1000.0 nM
[13] = molecular target: Serine/threonine-protein kinase SBK1 (Homo sapiens) (UniProt Q52WX2); conditions: Compound concentration 1000.0 nM
[14] = molecular target: Dual specificity mitogen-activated protein kinase kinase 2 (Homo sapiens) (UniProt P36507); conditions: Compound concentration 1000.0 nM
[15] = molecular target: Mitogen-activated protein kinase kinase kinase kinase 4 (Homo sapiens) (UniProt O95819); conditions: Compound concentration 1000.0 nM
[16] = molecular target: Serine/threonine-protein kinase 25 (Homo sapiens) (UniProt O00506); conditions: Compound concentration 1000.0 nM
[17] = molecular target: Sigma intracellular receptor 2 (Homo sapiens) (UniProt Q5BJF2); conditions: Compound concentration 10.0 uM
[18] = molecular target: T2, Mitogen-activated protein kinase 12 (Homo sapiens) (UniProt P53778); conditions: Compound concentration 1000.0 nM
T2 sequence (whole entry): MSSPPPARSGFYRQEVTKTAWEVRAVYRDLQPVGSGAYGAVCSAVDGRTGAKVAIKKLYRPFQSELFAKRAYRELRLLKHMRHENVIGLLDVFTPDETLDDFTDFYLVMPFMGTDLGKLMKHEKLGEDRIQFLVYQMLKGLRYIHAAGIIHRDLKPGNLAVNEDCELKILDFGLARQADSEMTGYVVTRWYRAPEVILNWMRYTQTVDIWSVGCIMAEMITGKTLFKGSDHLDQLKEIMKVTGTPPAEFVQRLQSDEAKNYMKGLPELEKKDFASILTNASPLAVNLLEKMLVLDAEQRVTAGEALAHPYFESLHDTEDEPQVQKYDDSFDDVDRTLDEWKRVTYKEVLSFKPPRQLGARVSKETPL

[19] = molecular target: Phosphatidylinositol 3-kinase C2 domain-containing subunit gamma (Homo sapiens) (UniProt O75747); conditions: Compound concentration 1000.0 nM
[20] = molecular target: Serine/threonine-protein kinase RIO3 (Homo sapiens) (UniProt O14730); conditions: Compound concentration 1000.0 nM
[21] = molecular target: Mitogen-activated protein kinase 11 (Homo sapiens) (UniProt Q15759); conditions: Compound concentration 1000.0 nM
[22] = molecular target: Tyrosine-protein kinase Fer (Homo sapiens) (UniProt P16591); conditions: Compound concentration 1000.0 nM
[23] = molecular target: 5-hydroxytryptamine receptor 5A (Homo sapiens) (UniProt P47898); conditions: Compound concentration 10.0 uM
[24] = molecular target: T3, Dual specificity mitogen-activated protein kinase kinase 6 (Homo sapiens) (UniProt P52564); conditions: Compound concentration 1000.0 nM
T3 sequence (whole entry): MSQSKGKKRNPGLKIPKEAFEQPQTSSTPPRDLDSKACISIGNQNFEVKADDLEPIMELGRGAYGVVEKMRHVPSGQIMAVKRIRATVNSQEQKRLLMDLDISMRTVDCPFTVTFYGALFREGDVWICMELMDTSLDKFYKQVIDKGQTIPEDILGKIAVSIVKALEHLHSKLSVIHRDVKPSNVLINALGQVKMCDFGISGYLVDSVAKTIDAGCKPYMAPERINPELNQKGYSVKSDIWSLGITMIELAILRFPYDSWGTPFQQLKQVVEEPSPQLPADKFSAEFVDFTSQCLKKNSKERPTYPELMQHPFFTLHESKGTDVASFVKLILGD

[25] = molecular target: Dual specificity protein kinase CLK3 (Homo sapiens) (UniProt P49761); conditions: Compound concentration 1000.0 nM
[26] = molecular target: Mitogen-activated protein kinase 10 (Homo sapiens) (UniProt P53779); conditions: Compound concentration 1000.0 nM
[27] = molecular target: Vascular endothelial growth factor receptor 1 (Homo sapiens) (UniProt P17948); conditions: Compound concentration 1000.0 nM
[28] = molecular target: Mitogen-activated protein kinase 9 (Homo sapiens) (UniProt P45984); conditions: Compound concentration 1000.0 nM
[29] = test system: Phosphatidylinositol 4,5-bisphosphate 3-kinase catalytic subunit alpha isoform (Homo sapiens), P42336 [H1047L]; conditions: Compound concentration 1000.0 nM

Sequence of Dual specificity mitogen-activated protein kinase kinase 2 (Homo sapiens) (P36507 whole entry): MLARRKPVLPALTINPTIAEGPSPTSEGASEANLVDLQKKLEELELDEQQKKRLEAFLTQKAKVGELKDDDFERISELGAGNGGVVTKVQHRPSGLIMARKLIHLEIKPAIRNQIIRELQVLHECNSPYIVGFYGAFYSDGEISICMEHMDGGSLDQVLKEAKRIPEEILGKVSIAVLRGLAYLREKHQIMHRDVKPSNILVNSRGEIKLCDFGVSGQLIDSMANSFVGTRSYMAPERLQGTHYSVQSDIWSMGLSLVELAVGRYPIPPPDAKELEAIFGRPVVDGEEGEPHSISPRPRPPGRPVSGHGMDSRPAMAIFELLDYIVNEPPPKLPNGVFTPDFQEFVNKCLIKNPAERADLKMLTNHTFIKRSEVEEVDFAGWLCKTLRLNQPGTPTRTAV
Sequence of Tyrosine-protein kinase HCK (Homo sapiens) (P08631 2-526 limits assumed): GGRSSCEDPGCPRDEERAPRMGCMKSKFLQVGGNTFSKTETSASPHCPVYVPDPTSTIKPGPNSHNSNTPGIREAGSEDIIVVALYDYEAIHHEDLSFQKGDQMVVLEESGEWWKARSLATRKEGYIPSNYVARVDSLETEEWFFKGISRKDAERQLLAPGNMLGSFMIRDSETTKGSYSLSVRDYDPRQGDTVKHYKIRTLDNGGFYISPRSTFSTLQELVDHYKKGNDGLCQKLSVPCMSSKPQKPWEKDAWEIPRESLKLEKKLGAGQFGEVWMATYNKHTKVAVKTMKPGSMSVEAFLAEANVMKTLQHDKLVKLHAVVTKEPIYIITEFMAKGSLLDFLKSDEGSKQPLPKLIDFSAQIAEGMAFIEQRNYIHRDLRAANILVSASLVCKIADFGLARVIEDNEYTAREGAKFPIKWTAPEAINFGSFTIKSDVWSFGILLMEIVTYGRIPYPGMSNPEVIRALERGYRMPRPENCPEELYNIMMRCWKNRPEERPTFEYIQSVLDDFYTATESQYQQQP
Sequence of Mitogen-activated protein kinase 14 (Homo sapiens) (Q16539 whole entry): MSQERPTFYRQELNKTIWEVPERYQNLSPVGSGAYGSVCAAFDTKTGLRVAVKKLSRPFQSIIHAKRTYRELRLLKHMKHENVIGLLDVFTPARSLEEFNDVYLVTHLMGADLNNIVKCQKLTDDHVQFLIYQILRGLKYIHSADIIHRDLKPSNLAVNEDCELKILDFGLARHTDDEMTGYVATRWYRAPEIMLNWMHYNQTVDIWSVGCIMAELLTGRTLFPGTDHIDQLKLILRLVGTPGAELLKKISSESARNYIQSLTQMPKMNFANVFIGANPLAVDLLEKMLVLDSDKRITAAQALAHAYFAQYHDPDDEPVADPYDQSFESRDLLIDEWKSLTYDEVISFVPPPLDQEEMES
Sequence of Phosphatidylinositol 3-kinase C2 domain-containing subunit gamma (Homo sapiens) (O75747 whole entry, the tested form may be a part): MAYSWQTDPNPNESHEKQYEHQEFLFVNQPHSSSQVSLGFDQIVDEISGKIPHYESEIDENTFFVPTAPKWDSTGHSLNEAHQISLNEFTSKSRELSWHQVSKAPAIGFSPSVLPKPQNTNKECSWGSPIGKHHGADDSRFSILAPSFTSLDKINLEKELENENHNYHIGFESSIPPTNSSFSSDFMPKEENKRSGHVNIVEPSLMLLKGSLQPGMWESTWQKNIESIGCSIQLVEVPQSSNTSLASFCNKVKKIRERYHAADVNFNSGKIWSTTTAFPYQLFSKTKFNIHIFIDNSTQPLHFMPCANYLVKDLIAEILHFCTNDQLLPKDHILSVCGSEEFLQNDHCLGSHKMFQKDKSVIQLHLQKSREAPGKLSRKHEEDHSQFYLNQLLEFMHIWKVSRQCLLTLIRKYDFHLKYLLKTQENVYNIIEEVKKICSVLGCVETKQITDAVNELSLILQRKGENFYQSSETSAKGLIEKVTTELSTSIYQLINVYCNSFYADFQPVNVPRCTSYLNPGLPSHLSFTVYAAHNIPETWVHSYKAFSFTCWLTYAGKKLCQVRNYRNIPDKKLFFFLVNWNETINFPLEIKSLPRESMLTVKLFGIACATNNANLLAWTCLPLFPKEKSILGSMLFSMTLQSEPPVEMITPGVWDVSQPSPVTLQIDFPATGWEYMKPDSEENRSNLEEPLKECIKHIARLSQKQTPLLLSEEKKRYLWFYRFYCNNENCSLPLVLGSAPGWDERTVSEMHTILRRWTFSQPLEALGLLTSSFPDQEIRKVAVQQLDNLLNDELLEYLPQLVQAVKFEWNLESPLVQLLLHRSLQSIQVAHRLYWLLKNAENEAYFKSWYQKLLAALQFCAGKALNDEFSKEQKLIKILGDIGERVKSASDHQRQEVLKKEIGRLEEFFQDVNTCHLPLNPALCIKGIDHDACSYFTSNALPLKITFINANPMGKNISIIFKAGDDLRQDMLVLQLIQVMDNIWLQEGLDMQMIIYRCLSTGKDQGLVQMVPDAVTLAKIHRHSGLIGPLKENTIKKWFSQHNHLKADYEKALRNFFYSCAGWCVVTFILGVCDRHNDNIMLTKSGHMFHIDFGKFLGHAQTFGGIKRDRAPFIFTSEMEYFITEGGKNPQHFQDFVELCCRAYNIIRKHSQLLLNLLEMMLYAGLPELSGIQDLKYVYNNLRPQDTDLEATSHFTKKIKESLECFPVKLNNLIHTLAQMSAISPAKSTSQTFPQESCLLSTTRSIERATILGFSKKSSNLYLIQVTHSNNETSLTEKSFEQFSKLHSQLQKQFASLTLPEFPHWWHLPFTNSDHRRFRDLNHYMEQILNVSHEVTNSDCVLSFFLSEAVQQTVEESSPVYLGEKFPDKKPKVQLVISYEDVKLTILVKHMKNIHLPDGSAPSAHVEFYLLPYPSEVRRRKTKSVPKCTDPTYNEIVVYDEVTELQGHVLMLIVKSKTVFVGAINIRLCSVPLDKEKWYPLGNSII
Sequence of Serine/threonine-protein kinase SBK1 (Homo sapiens) (Q52WX2 whole entry): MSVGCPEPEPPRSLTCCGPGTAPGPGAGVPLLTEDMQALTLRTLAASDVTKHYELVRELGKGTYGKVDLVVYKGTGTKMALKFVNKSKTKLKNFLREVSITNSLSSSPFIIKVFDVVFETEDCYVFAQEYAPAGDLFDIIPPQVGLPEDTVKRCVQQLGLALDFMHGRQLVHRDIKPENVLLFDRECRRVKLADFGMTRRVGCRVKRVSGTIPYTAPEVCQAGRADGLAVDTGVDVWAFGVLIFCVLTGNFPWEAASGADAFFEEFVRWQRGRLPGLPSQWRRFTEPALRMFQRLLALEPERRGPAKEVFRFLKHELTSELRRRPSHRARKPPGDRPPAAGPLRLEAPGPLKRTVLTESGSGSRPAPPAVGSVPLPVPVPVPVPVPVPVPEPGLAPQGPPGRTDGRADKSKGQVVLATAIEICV
Sequence of Cyclin-dependent kinase 14 (Homo sapiens) (O94921 whole entry): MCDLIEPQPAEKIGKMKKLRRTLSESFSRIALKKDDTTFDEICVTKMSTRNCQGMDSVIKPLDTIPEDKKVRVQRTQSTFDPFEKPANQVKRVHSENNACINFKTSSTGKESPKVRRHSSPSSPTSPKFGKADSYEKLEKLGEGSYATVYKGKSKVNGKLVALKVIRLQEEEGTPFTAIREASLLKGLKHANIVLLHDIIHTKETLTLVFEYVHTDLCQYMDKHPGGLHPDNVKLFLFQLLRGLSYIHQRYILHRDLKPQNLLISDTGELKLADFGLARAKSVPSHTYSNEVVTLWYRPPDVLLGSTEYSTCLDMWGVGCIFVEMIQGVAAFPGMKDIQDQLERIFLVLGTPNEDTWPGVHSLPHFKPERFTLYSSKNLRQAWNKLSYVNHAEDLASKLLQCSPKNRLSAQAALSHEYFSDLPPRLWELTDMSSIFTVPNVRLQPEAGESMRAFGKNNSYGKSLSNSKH
Sequence of Tyrosine-protein kinase Fer (Homo sapiens) (P16591 whole entry, looked up): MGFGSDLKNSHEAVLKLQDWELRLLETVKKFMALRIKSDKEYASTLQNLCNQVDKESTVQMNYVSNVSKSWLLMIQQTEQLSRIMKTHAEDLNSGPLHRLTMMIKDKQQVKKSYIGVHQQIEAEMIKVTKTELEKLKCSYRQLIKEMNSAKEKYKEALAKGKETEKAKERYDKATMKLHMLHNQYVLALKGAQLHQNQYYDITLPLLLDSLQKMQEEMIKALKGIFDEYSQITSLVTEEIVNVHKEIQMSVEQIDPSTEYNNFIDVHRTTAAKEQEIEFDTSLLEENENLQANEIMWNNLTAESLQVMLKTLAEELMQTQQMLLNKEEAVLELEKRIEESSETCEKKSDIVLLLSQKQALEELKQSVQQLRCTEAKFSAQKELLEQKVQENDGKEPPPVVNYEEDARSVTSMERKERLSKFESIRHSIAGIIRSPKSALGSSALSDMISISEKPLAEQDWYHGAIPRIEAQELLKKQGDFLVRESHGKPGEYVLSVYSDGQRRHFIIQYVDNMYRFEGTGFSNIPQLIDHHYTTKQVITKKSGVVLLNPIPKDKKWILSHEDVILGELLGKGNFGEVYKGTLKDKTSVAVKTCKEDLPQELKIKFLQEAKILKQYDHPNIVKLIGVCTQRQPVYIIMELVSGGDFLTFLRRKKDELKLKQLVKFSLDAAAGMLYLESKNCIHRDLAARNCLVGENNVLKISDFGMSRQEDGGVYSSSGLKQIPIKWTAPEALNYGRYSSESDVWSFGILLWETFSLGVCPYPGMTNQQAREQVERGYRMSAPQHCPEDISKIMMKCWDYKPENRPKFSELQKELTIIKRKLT
Sequence of Mitogen-activated protein kinase 11 (Homo sapiens) (Q15759 whole entry): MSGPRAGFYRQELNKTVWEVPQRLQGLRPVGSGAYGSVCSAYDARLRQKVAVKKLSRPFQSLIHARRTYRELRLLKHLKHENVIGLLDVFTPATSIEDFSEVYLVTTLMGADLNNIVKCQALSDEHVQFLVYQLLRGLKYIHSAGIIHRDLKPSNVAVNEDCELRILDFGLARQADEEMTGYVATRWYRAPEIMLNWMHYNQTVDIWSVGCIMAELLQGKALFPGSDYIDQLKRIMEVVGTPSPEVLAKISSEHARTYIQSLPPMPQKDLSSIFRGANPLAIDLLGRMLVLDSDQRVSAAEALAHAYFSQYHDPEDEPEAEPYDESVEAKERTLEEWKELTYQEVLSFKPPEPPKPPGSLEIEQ
Sequence of Sigma intracellular receptor 2 (Homo sapiens) (Q5BJF2 whole entry): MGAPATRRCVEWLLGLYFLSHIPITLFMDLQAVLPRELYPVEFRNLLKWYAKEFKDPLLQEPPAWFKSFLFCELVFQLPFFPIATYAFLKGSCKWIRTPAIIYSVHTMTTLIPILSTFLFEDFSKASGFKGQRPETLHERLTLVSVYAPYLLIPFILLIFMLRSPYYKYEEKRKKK

CN(C)C(=O)Cn1cc(-c2nc(C3(c4ccc(-c5cnc(N)nc5)cc4)CC3)no2)cn1 [BI 0153]
inactive: residual activity [1] 85% | residual activity [2] 82% | residual activity [3] 100% | residual activity [4] 84% | residual activity [5] 100% | residual activity [6] 73% | residual activity [7] 100% | residual activity [8] 100% | residual activity [9] 67% | residual activity [10] 90% | residual activity [11] 100% | residual activity [12] 100% | residual activity [13] 83% | residual activity [14] 80% | residual activity [15] 66% | residual activity [16] 100% | inhibition [17] 25% | residual activity [18] 62% | residual activity [19] 76% | residual activity [20] 89% | residual activity [21] 86% | residual activity [22] 79% | inhibition [23] 0.23% | residual activity [24] 100% | residual activity [25] 100% | residual activity [26] 93% | residual activity [27] 100% | residual activity [28] 81% | residual activity [29] 73%

CN(C)C(=O)Cn1cc(-c2nc([C@@](C)(c3ccc(-c4cnc(N)nc4)cc3)C3CC3)no2)cn1 [BI 665915]
inactive: residual activity [1] 100% | residual activity [2] 87% | residual activity [3] 93% | residual activity [4] 89% | residual activity [5] 98% | residual activity [6] 100% | residual activity [7] 80% | residual activity [8] 99% | residual activity [9] 98% | residual activity [10] 88% | residual activity [11] 90% | residual activity [12] 79% | residual activity [13] 87% | residual activity [14] 86% | residual activity [15] 90% | residual activity [16] 100% | inhibition [17] 10.1% | residual activity [18] 94% | residual activity [19] 66% | residual activity [20] 100% | residual activity [21] 97% | residual activity [22] 94% | inhibition [23] -4.97% | residual activity [24] 100% | residual activity [25] 100% | residual activity [26] 94% | residual activity [27] 100% | residual activity [28] 75% | residual activity [29] 100%
